The values that follow come from patent publication US9139502B2, “Use of an urushiol compound in preparation of pharmaceutical compositions for inhibiting Smad3 phosphorylation” (Southern Hospital, Southern Medical University, priority 2013, dated 2015).

In one experiment the test system is p38. Briefly: Western blot of p38 phosphorylation in UUO kidneys. It counts as in vivo, rat. The following applies: UUO rats, GQ-5 40 mg/kg daily i.p. right after UUO, sacrificed day 14. The method, then: Male Sprague-Dawley rats with body weight 200 to 250 g were randomized into 3 groups (n=6 in each group): (1) sham operated rats; (2) UUO rats; (3) UUO+GQ-5 rats.
(§1) GQ-5 was dissolved in 5% propylene glycol.
(3) UUO+GQ-5 rats: daily intraperitoneal injection of GQ-5 (40 mg/kg body weight) right after UUO;
UUO was performed using an established protocol as described. GQ-5 was dissolved in 5% propylene glycol. Rats were administrated with GQ-5 as described before. All the rats were sacrificed 14 days after UUO. Western blot analyses were performed to examine the Smad4, Smad7 expression and p38, PI3K, ERK phosphorylation.
For orientation: In western blotting, separated proteins are transferred to a membrane and probed.

The test system of experiment [1] is α-SMA. Briefly: Real-time PCR of TGF-β1-induced α-SMA mRNA in vitro. To be noted: NRK 52E and NRK 49F cells, GQ-5 0.1-2.5 μM pre-treated 1 h, TGF-β1 10 ng/ml 36 h. It counts as cell-based, rat. The method, then:
(§2) NRK52E and NRK49F cells were cultured in DMEM-Ham's medium supplemented with 10% fetal bovine serum. The cells reached at approximately 50% confluence were used for in vitro experiments. Cells were serum-starved for 12 h, and randomized into 6 groups: (1) Controls; (2) GQ-5 only; (3) TGF-β1 only; (4) TGF-β1+GQ-5 0.1 μM; (5) TGF-β1+GQ-5 0.5 μM; (6) TGF-β1+GQ-5 2.5 μM
(2) GQ-5 only: pre-treated with GQ-5 (2.5 μM) for 1 h, followed with DMEM for 36 h
(3) TGF-β1 only: pre-treated with DMSO for 1 h, followed with TGF-β1 (10 ng/ml) for 36 h
(4) TGF-β1+GQ-5 0.1 μM: pre-treated with GQ-5 (0.1 μM) for 1 h, followed with TGF-β1 (10 ng/ml) for 36 h
(5) TGF-β1+GQ-5 0.5 μM: pre-treated with GQ-5 (0.5 μM) for 1 h, followed with TGF-β1 (10 ng/ml) for 36 h
(6) TGF-β1+GQ-5 2.5 μM: pre-treated with GQ-5 (2.5 μM) for 1 h, followed with TGF-β1 (10 ng/ml) for 36 h
GQ-5 was dissolved in DMSO. Cells were treated as described. Cells were collected for mRNA extraction. Real-rime PCR was performed to examine the mRNA expression of α-SMA, collagen I and fibronectin.

Experiment [2] has as its target interaction of Smad2 with TβRI (Rattus norvegicus, UniProt O70436). The experiment in a line: Immunoprecipitation of Smad2 with TβRI in vitro. It counts as cell-based. On the set-up: endogenous in cells; host or cells: NRK52E. The following applies: NRK52E cells, GQ-5 2.5 nM pre-treated 1 h, TGF-β1 10 ng/ml 1 h. The procedure: NRK52E cells were cultured in DMEM-Ham's medium supplemented with 10% fetal bovine serum. The cells reached at approximately 50% confluence were used for in vitro experiments. Cells were serum-starved for 12 h, and randomized into 4 groups: (1) Controls; (2) GQ-5 only; (3) TGF-β1 only; (4) TGF-β1+GQ-5
(2) GQ-5 only: pre-treated with GQ-5 (2.5 nM) for 1 h, followed with DMEM for 1 h
(3) TGF-β1 only: pre-treated with DMSO for 1 h, followed with TGF-β1 (10 ng/ml) for 1 h
(§3) (4) TGF-β1+GQ-5: pre-treated with GQ-5 (2.5 nM) for 1 h, followed with TGF-β1 (10 ng/ml) for 1 h
GQ-5 was dissolved in DMSO. Cells were treated as described. Cell lysates were collected for immunoprecipitation to examine the interaction among TGFβ type I receptor (TβRI), TβRII, Smad3 and Smad2.

A further experiment has as its system ERK. Briefly: Western blot of TGF-β1-induced ERK phosphorylation in vitro. The format is cell-based, rat. To be noted: NRK52E and NRK49F cells, GQ-5 2.5 nM pre-treated 1 h, TGF-β1 10 ng/ml 1 h. The method, then: (§4) NRK52E and NRK49F cells were cultured in DMEM-Ham's medium (Gibco, Life Techologies, NY, USA) supplemented with 10% fetal bovine serum (Gibco, Life Techologies, NY, USA). The cells reached at approximately 50% confluence were used for in vitro experiments. Cells were serum-starved for 12 h, and randomized into 4 groups: (1) Controls; (2) GQ-5 only; (3) TGF-β1 only; (4) TGF-β1+GQ-5
(§5) (2) GQ-5 only: pre-treated with GQ-5 (2.5 μM) for 1 h, followed with DMEM for 1 h
(§6) (3) TGF-β1 only: pre-treated with DMSO (0.1%) for 1 h, followed with TGF-β1 (10 ng/ml) for 1 h
as §3
(§7) GQ-5 was dissolved in DMSO. Cells were treated as described. cell lysates were immunoblotted with antibodies against Smad4, Smad7, phospho-p38, p38, phospho-PI3K, PI3K, phosphor-ERK, and ERK.

In another experiment the test system is Smad4. The experiment in a line: Western blot of Smad4 expression in vitro. It counts as cell-based, rat. The following applies: NRK52E and NRK49F cells, GQ-5 2.5 nM pre-treated 1 h, TGF-β1 10 ng/ml 1 h. The procedure: as §4, §5, §6, §3, §7
Another experiment deals with collagen I. The experiment in a line: Western blot of TGF-β1-induced collagen I protein in vitro. It counts as cell-based, rat. To be noted: NRK 52E and NRK 49F cells, GQ-5 0.1-2.5 μM pre-treated 1 h, TGF-β1 10 ng/ml 48 h. The procedure: as §2
(2) GQ-5 only: pre-treated with GQ-5 (2.5 μM) for 1 h, followed with DMEM for 48 h
(3) TGF-β1 only: pre-treated with DMSO for 1 h, followed with TGF-β1 (10 ng/ml) for 48 h
(4) TGF-β1+GQ-5 0.1 μM: pre-treated with GQ-5 (0.1 μM) for 1 h, followed with TGF-β1 (10 ng/ml) for 48 h
(5) TGF-β1+GQ-5 0.5 μM: pre-treated with GQ-5 (0.5 μM) for 1 h, followed with TGF-β1 (10 ng/ml) for 48 h
(6) TGF-β1+GQ-5 2.5 μM: pre-treated with GQ-5 (2.5 μM) for 1 h, followed with TGF-β1 (10 ng/ml) for 48 h
GQ-5 was dissolved in DMSO. Cells were treated as described. Cells lysates were immunebloted with antibodies against α-SMA, collagen I and fibronectin.

Experiment [3] deals with α-SMA. The experiment in a line: α-SMA expression in UUO kidney tissue (real-time PCR, immunohistochemistry, Western blot). The following applies: UUO rats, GQ-5 40 mg/kg daily i.p., sacrificed day 14. It counts as in vivo, rat. The method, then: Male Sprague-Dawley rats were randomized into 4 groups (n=6 in each group): (1) sham operated rats; (2) UUO rats; (3) UUO+GQ-5 d1 rats; (4) UUO+GQ-5 d7 rats.
as §1
(3) UUO+GQ-5 d1 rats: daily intraperitoneal injection of GQ-5 (40 mg/kg body weight) right after UUO;
(4) UUO+GQ-5 d7 rats: daily intraperitoneal injection of GQ-5 (40 mg/kg body weight) 7 days after UUO.
UUO was performed using an established protocol as described. GQ-5 was dissolved in 5% propylene glycol. Rats were administrated with GQ-5 as described before. All the rats were sacrificed 14 days after UUO. HE staining, Masson trichrome staining were performed to examine the renal tissue injury, and Real-time PCR analyses, immunohistochemical staining, and Western blot analyses were performed to examine α-SMA, collagen I and fibronectin expression in kidney tissue
(Quantitative PCR measures a nucleic acid by following its amplification.)

interaction of Smad2 with TβRI, sequence (O70436 whole entry): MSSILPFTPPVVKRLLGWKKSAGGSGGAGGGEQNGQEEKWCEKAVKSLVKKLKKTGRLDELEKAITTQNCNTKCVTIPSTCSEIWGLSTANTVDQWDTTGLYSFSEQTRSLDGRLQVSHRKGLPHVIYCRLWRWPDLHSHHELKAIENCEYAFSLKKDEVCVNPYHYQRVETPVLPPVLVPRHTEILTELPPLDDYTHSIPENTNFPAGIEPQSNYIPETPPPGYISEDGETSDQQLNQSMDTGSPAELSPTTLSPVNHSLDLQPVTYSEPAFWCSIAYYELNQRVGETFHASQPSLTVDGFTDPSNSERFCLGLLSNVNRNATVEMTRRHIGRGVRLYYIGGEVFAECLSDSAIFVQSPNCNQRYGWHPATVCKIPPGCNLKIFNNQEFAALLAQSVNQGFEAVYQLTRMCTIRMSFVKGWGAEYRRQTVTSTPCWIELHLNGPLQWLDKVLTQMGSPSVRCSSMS

On to `CCCCCC/C=C\CCCCCCCc1cccc(O)c1O` [GQ-5, 3-[(Z)-pentadec-8-enyl]catechol], for which, in the experiment with p38, the “phosphorylation of p38” value is “did not affect”. Moreover, in the experiment on α-SMA [1], the “TGF-β1-induced mRNA expression of α-SMA” value is recorded as “significantly inhibited”. The “interaction of Smad2 with TβRI” value in experiment [2] is recorded as “did not affect”. The “TGF-β1-induced phosphorylation of ERK” value in the experiment with ERK is recorded as “did not affect”. In addition, the “protein expression of Smad4” value with Smad4 is listed as “did not affect”. In addition, in the experiment with collagen I, the “TGF-β1-induced protein expression of collagen I” value is on record as “significantly inhibited”. Further, the “up-regulation of α-SMA at both mRNA and protein level” value in the experiment with α-SMA [3] is on record as “significantly inhibited”.
